Data published in US5536623A, “Method of producing highly water-soluble cyclodextrin complex” (Takeda Chemical Industries, Ltd., priority 1992, dated 1996).
Where two headings read alike, the source gives them in different places.

Columns and labels:
[1] = assay type: physicochemical; conditions: water
Procedure: (§1) Column: ODS, YMC-Pack A-312 (Yamamura Chemical Laboratories)
(§2) Mobil phase: water-acetonitrile (1:1 v/v)
(§3) Detector: Ultra violet detector (wavelength: 210 nm)
To a 5 ml aqueous solution containing 500 mg of glucosyl-β-cyclodextrin (hereinafter abbreviated G1[CyD) was added 250 mg of TNP-470, followed by stirring at 25° C. for 8 hours to obtain a solution. The resulting aqueous solution was filtered and lyophilized in accordance with the standard method to yield a powder. To the entire amount of the powder thus obtained, 5 ml of water was added to yield a uniform aqueous solution. Separately, in accordance With the conventional method, 100 mg of G1βCyD was dissolved in 5 ml of water; 250 mg of TNP-470 was added to this solution, followed by stirring at 25° C. for 8 hours. Then, the solution was filtered. The above uniform solution and the filtered solution were assayed for TNP-470 by HPLC method as described in Comparative Example 1. Also, the saturation solubility of TNP-470 alone was determined by HPLC.

[2] = Storage stability at 40° C., TNP-470 quantified by HPLC (Example 6); assay type: physicochemical; conditions: powder, 730 h
Procedure: as §1, §2, §3
To a 5 ml aqueous solution containing 726 mg of maltosyl-β-cyclodextrin was added 100 mg of TNP-470, followed by stirring at 25° C. for 180 minutes to yield a solution. This aqueous solution was filtered, and 5 ml of the filtrate was placed in a vial and lyophilized to yield a powder. The stability of this powder and that of TNP-470 alone were compared after storage at 40° C. for i month. TNP-470 was quantified by HPLC.

[3] = assay type: physicochemical; conditions: water; remark: listed apart in the source
Procedure: To a 5 ml aqueous solution containing 1000 mg of maltosyl-β-cyclodextrin (hereinafter abbreviated G2βCyD) was added 250 mg of 6-O-(N-chloroacetylcarbamoyl) fumagillol (hereinafter abbreviated TNP-470), followed by stirring at 25° C. for 8 hours to obtain a solution. The undissolved portion of TNP-470 was filtered out, and the filtrate was placed in a vial and lyophilized in accordance with a conventional method to yield a powder. To the entire amount of the powder thus obtained, 5 ml of water was added to yield a uniform aqueous solution. Separately, in accordance with the conventional method, 110 mg of G2βCyD was dissolved in 5 ml of water; 250 mg of TNP-470 was added to this solution, followed by stirring at 25° C. for 8 hours. Then, the solution was filtered. The above uniform solution and the filtered solution were assayed for TNP-470 by high performance liquid chromatography (HPLC). Also, the saturation solubility of TNP-470 alone was determined by HPLC.
as §1, §2, §3

CO[C@@H]1[C@H](OC(=O)NC(=O)CCl)CC[C@]2(CO2)[C@H]1[C@@]1(C)O[C@@H]1CC=C(C)C [TNP-470, 6-O-(N-chloroacetylcarbamoyl) fumagillol]
Comparison of Solubility (TNP-470) [1]: 1900 µg/mL
Stability, Percent residence (TNP-470) [2]: 68%
Comparison of Solubility (TNP-470) [3]: 1900 µg/mL
